From patent US20240360122A1, “POLYMORPHIC FORMS AND SALTS OF A GLP-1R AGONIST” (Terns (Suzhou) Biotechnology Co., Ltd., priority 2023, published 2024)
Counter-ions that a name gives are not always drawn.

Assays:
Type in all cases: physicochemical
[1] = Competitive experiments of Type A and Type B in different solvent system at different temperature; settings: different ratio of DMSO/EA system at different temperature
[2] = Solid state stability at 25° C./60% RH and 40° C./75% RH for 1 week; settings: for HPLC peak Area, RRT 1.00: main peak
Procedure: Each sample was added into a glass vial, sealed by parafilm with several holes, and kept under tested conditions. After one week, samples were taken for XRPD and HPLC purity test.

[3] = Approximate solubility in different solvents at RT
Procedure: For each experiment, approximately 2 mg of sample was added into a 3-mL glass vial. Corresponding solvents were then added stepwise (50/50/200/700/1000 μL) into the vials until the solids were dissolved visually or a total volume of 2 mL was reached. Solubility results summarized in Table 64 to Table 66 were used to guide the solvent selection in polymorph screening design.

[4] = Hygroscopicity by DVS at 25° C.
Procedure: DVS was measured via a SMS (Surface Measurement Systems) DVS Intrinsic. The relative humidity at 25° C. were calibrated against deliquescence point of LiCl, Mg(NO3)2 and KCl.

N#Cc1ccc(COc2cccc(C3CCN(Cc4nc5ccc(C(=O)O)cc5n4Cc4cncs4)CC3)n2)c(F)c1 [Meglumine salt Type A]
thermodynamic stability, Type A versus Type B [1]: thermodynamically more stable | HPLC peak Area, RRT 0.70 ([2]; 25° C./60% RH, 1 week): 0.07% | HPLC peak Area, RRT 0.73 ([2]; 25° C./60% RH, 1 week): 0.14% | HPLC peak Area, RRT 0.80 ([2]; 25° C./60% RH, 1 week): 0.05% | HPLC peak Area, RRT 0.83 ([2]; 25° C./60% RH, 1 week): 1.93% | HPLC peak Area, RRT 0.90 ([2]; 25° C./60% RH, 1 week): 0.12% | HPLC peak Area, RRT 0.99 ([2]; 25° C./60% RH, 1 week): <0.05% | HPLC peak Area, RRT 1.05 ([2]; 25° C./60% RH, 1 week): 0.28% | HPLC peak Area, RRT 1.10 ([2]; 25° C./60% RH, 1 week): 0.23% | HPLC peak Area, RRT 1.12 ([2]; 25° C./60% RH, 1 week): <0.05% | HPLC peak Area, RRT 1.15 ([2]; 25° C./60% RH, 1 week): 0.11% | HPLC peak Area, RRT 1.34 ([2]; 25° C./60% RH, 1 week): 0.08% | HPLC peak Area, RRT 1.00 ([2]; 25° C./60% RH, 1 week): 96.98% | Form change ([2]; 25° C./60% RH/Open/1 week): No | Purity ([2]; 25° C./60% RH/Open/1 week): 96.98 Area % | solid-state stability: form change and purity decrease ([2]; 25° C./60% RH/open and 40° C./75% RH/open, 1 week): no form change or significant purity decrease | HPLC peak Area, RRT 0.70 ([2]; 40° C./75% RH, 1 week): 0.06% | HPLC peak Area, RRT 0.73 ([2]; 40° C./75% RH, 1 week): 0.15% | HPLC peak Area, RRT 0.80 ([2]; 40° C./75% RH, 1 week): 0.05% | HPLC peak Area, RRT 0.83 ([2]; 40° C./75% RH, 1 week): 1.96% | HPLC peak Area, RRT 0.90 ([2]; 40° C./75% RH, 1 week): 0.11% | HPLC peak Area, RRT 0.99 ([2]; 40° C./75% RH, 1 week): <0.05% | HPLC peak Area, RRT 1.05 ([2]; 40° C./75% RH, 1 week): 0.28% | HPLC peak Area, RRT 1.10 ([2]; 40° C./75% RH, 1 week): 0.34% | HPLC peak Area, RRT 1.12 ([2]; 40° C./75% RH, 1 week): <0.05% | HPLC peak Area, RRT 1.15 ([2]; 40° C./75% RH, 1 week): 0.13% | HPLC peak Area, RRT 1.34 ([2]; 40° C./75% RH, 1 week): 0.05% | HPLC peak Area, RRT 1.00 ([2]; 40° C./75% RH, 1 week): 96.88% | Form change ([2]; 40° C./75% RH/Open/1 week): No | Purity ([2]; 40° C./75% RH/Open/1 week): 96.88 Area % | HPLC peak Area, RRT 0.70 ([2]; Initial): 0.07% | HPLC peak Area, RRT 0.73 ([2]; Initial): 0.13% | HPLC peak Area, RRT 0.80 ([2]; Initial): 0.05% | HPLC peak Area, RRT 0.83 ([2]; Initial): 1.95% | HPLC peak Area, RRT 0.90 ([2]; Initial): 0.12% | HPLC peak Area, RRT 0.99 ([2]; Initial): 0.11% | HPLC peak Area, RRT 1.05 ([2]; Initial): 0.28% | HPLC peak Area, RRT 1.10 ([2]; Initial): 0.24% | HPLC peak Area, RRT 1.12 ([2]; Initial): 0.05% | HPLC peak Area, RRT 1.15 ([2]; Initial): 0.11% | HPLC peak Area, RRT 1.34 ([2]; Initial): 0.16% | Purity ([2]; Initial): 96.73 Area % | HPLC peak Area, RRT 1.00 ([2]; Initial): 96.73% | Approximate solubility ([3]; 2-MeTHF, RT): S < 1.0 mg/mL | Approximate solubility ([3]; ACN, RT): S < 1.0 mg/mL | Approximate solubility ([3]; Acetone, RT): S < 1.1 mg/mL | Approximate solubility ([3]; Anisole, RT): S < 1.1 mg/mL | Approximate solubility ([3]; CHCl3, RT): S < 1.0 mg/mL | Approximate solubility ([3]; CPME, RT): S < 1.0 mg/mL | Approximate solubility ([3]; DCM, RT): S < 1.1 mg/mL | Approximate solubility ([3]; EtOAc, RT): S < 1.1 mg/mL | Approximate solubility ([3]; H2O, RT): S > 44.0 mg/mL | Approximate solubility ([3]; IPA, RT): S < 1.1 mg/mL | Approximate solubility ([3]; IPAc, RT): S < 1.0 mg/mL | Approximate solubility ([3]; MIBK, RT): S < 1.0 mg/mL | Approximate solubility ([3]; MTBE, RT): S < 1.0 mg/mL | Approximate solubility ([3]; THF, RT): S < 1.1 mg/mL | Approximate solubility ([3]; Toluene, RT): S < 1.2 mg/mL | Approximate solubility ([3]; n-Heptane, RT): S < 1.0 mg/mL | water uptake (DVS) ([4]; 25° C./80% RH): 1.43% | hygroscopicity ([4]; DVS, 25° C.): slightly hygroscopic | Water uptake at 25° C./80% RH ([4]; DVS, 25° C./80% RH): 1.43 wt % | For change after DVS ([4]; XRPD after DVS test): No | form change after DVS test (XRPD) ([4]; after DVS test): no form change
